Data as given in ChEMBL document CHEMBL6078635, “Advances in diarylpyrimidines and related analogues as HIV-1 nonnucleoside reverse transcriptase inhibitors (2019-2023)” (Eur J Med Chem, 2024).

Tests used:
[1] = system: Human immunodeficiency virus 1; assay: Antiviral activity against HIV1 harboring K103N/Y181C double mutant; type: functional, organism-based
[2] = system: Human immunodeficiency virus 1; assay: Antiviral activity against wild type HIV-1; type: functional, organism-based
MT4 = assay: Cytotoxicity against human MT4 cells assessed as reduction in cell viability after 5 days by MTT assay; type: functional; conditions: MT4, 120 h, time 5 day
[3] = Selectivity index, ratio of CC50 for cytotoxicity against human MT4 cells to EC50 for antiviral activity against wild type HIV-1 IIIB infected in human MT4 cells; type: toxicity, cell-based; conditions: read-out: Selectivity Index
[4] = system: Human immunodeficiency virus 1; assay: Antiviral activity against HIV1 harboring F227L/V106A double mutant infected in MT4 cells; type: functional, organism-based; conditions: Human immunodeficiency virus 1, MT4
[5] = system: Human immunodeficiency virus 1; assay: Antiviral activity against HIV-1 […] mutant; type: functional, organism-based
[6] = system: Human immunodeficiency virus 1; assay: Antiviral activity against HIV1 harboring K103N mutant infected in MT4 cells; type: functional, organism-based; conditions: Human immunodeficiency virus 1, MT4
[7] = system: Human immunodeficiency virus 1; assay: Antiviral activity against HIV1 harboring Y181C mutant infected in MT4 cells; type: functional, organism-based; conditions: Human immunodeficiency virus 1, MT4
[8] = system: Human immunodeficiency virus 1; assay: Antiviral activity against HIV1 harboring E138K mutant infected in MT4 cells; type: functional, organism-based; conditions: Human immunodeficiency virus 1, MT4
[9] = system: Human immunodeficiency virus 1; assay: Antiviral activity against HIV1 harboring Y188L mutant infected in MT4 cells; type: functional, organism-based; conditions: Human immunodeficiency virus 1, MT4
[10] = system: Human immunodeficiency virus 1; assay: Antiviral activity against wild type HIV-1 3B; type: functional, organism-based; conditions: Human immunodeficiency virus 1, 3B
[11] = Oral bioavailability in human; type: ADME, organism-based; conditions: in vivo
[12] = biological target: Human immunodeficiency virus type 1 reverse transcriptase (Human immunodeficiency virus 1, UniProt Q72547); assay: Inhibition of wild type HIV-1 Reverse transcriptase
[13] = system: Human immunodeficiency virus 1; assay: Antiviral activity against HIV-1 3B harboring L100I mutant infected in MT4 cells assessed as reduction in virus induced cytopathic effect incubated for 5 days by MTT method; type: functional, organism-based; conditions: Human immunodeficiency virus 1, 3B, MT4, 120 h
[14] = system: Human immunodeficiency virus 1; assay: Antiviral activity against HIV1 harboring K103N mutant infected in MT4 cells assessed as inhibition of viral growth; type: functional, organism-based; conditions: Human immunodeficiency virus 1, MT4
[15] = system: Human immunodeficiency virus 1; assay: Antiviral activity against HIV-1 3B harboring F227L/V106A double mutant infected in MT4 cells assessed as reduction in virus induced cytopathic effect incubated for 5 days by MTT method; type: functional, organism-based; conditions: Human immunodeficiency virus 1, 3B, MT4, 120 h
[16] = system: Human immunodeficiency virus 1; assay: Antiviral activity against HIV-1 Y188L mutant infected in human MT4 cells assessed as reduction in virus induced cytopathic effect incubated for 5 days by MTT method; type: functional, organism-based; conditions: Human immunodeficiency virus 1, MT4, 120 h
[17] = system: Human immunodeficiency virus 1; assay: Antiviral activity against NNRTI-resistant HIV-1 harboring Y181C mutant assessed as inhibition of viral growth; type: functional, organism-based
[18] = system: Human immunodeficiency virus 1; assay: Antiviral activity against wild type HIV-1 3B infected in human MT4 cells assessed as inhibition of virus-induced cytopathic effect measured for 5 days by MTT assay; type: functional, organism-based; conditions: Human immunodeficiency virus 1, 3B, MT4, 120 h
[19] = system: Human immunodeficiency virus 1; assay: Antiviral activity against HIV-1 3B harboring E138K mutant infected in MT4 cells assessed as reduction in virus induced cytopathic effect incubated for 5 days by MTT assay; type: functional, organism-based; conditions: Human immunodeficiency virus 1, 3B, MT4, 120 h

Structure (SMILES): N#Cc1ccc(Nc2nccc(Oc3ccc4cc(C#N)ccc4c3Br)n2)cc1
- EC50 [1]: 240 nM
- EC50 [2]: 2 nM
- CC50 (MT4): 283000 nM
- selectivity ratio [3]: 181000

Structure (SMILES): COc1cc2cc(C#N)ccc2c(OC)c1Oc1ccnc(Nc2ccc(C#N)cc2)n1
- EC50 [1]: 160 nM
- EC50 [2]: 5 nM
- CC50 (MT4): > 118000 nM
- selectivity ratio [3]: > 25000

Structure (SMILES): Cc1cc(C#N)cc(C)c1Oc1ccnc(S(=O)(=O)CC(=O)Nc2ccc(C#N)cc2)n1
- EC50 [2]: 2 nM
- CC50 (MT4): > 6010 nM
- selectivity ratio [3]: > 3540

Structure (SMILES): Cc1cc(-c2ccc(C#N)cc2)cc(C)c1Nc1ccnc(Nc2ccc(C#N)cc2)n1
- CC50 (MT4): 2080 nM
- selectivity ratio [3]: 2060

Structure (SMILES): N#Cc1ccc(Nc2nccc(Oc3ccc4ccccc4c3Br)n2)cc1
- EC50 [1]: 6750 nM
- EC50 [2]: 2.4 nM
- CC50 (MT4): 154000 nM
- selectivity ratio [3]: 65600

Structure (SMILES): Cc1cc(C(C#N)c2ccccc2F)nc(Nc2ccc(C#N)cc2)n1 (stereo not drawn)
- EC50 [2]: 1.8 nM

Structure (SMILES): Cc1cc(C#Cc2cccnc2)cc(C)c1Oc1ccnc(Nc2ccc(C#N)cc2)n1
- EC50 [4]: 209 nM
- EC50 [1]: 935 nM
- EC50 [2]: 3 nM
- EC50 [5]: 76 nM
- CC50 (MT4): 3480 nM
- EC50 [6]: 10 nM

Structure (SMILES): N#Cc1ccc(Nc2nccc(/C(=N/O)c3ccc(-c4ccc(F)cc4)cc3F)n2)cc1
- EC50 [4]: 4600 nM
- EC50 [7]: 182 nM
- EC50 [8]: 170 nM
- EC50 [9]: 3430 nM
- EC50 [1]: 22700 nM
- EC50 [2]: 12 nM
- EC50 [5]: 400 nM
- CC50 (MT4): > 292000 nM
- EC50 [6]: 500 nM

Structure (SMILES): Cc1cc(/C=C/C#N)cc([N+](=O)[O-])c1Nc1nc(Nc2ccc(C#N)cc2)nc2ccccc12
- EC50 [10]: 3.4 nM
- bioavailability [11]: 16.5%

Structure (SMILES): Cc1cc(/C=C/C#N)cc([N+](=O)[O-])c1Nc1nc(Nc2ccc(C#N)cc2)nc2ccc(Cl)cc12
- EC50 [10]: 10.6 nM
- bioavailability [11]: 16%

Structure (SMILES): N#Cc1ccc(Nc2ncc(C(N)=O)c(Oc3ccc4cc(C#N)ccc4c3)n2)cc1
- EC50 [8]: 11 nM
- EC50 [2]: 3.7 nM
- CC50 (MT4): > 307000 nM
- selectivity ratio [3]: 84700

Structure (SMILES): Cc1cc(-c2ccc(C#N)cc2)cc(C)c1Oc1ccnc(S(=O)(=O)CC(=O)Nc2ccc(C#N)cc2)n1
- EC50 [4]: 642 nM
- EC50 [7]: 26 nM
- EC50 [8]: 26 nM
- EC50 [9]: 122 nM
- EC50 [1]: 226 nM
- EC50 [2]: 6 nM
- IC50 [12]: 142 nM
- EC50 [5]: 8 nM
- CC50 (MT4): 24400 nM
- EC50 [6]: 6 nM
- selectivity ratio [3]: 4070

Structure (SMILES): COc1ccc(-c2cc(C)c(Oc3nc(NC4CCN(Cc5ccc(C(N)=O)cc5)CC4)nc4ccsc34)c(C)c2)cc1
- EC50 [13]: 268 nM
- EC50 [14]: 58.4 nM
- EC50 [15]: 297 nM
- EC50 [16]: 110 nM
- EC50 [17]: 158 nM
- EC50 [18]: 52.6 nM
- EC50 [1]: 1120 nM
- EC50 [19]: 149 nM

Structure (SMILES): Cc1cc(-c2ccc(N(C)C)cc2)cc(C)c1Oc1nc(NC2CCN(Cc3ccc(C(N)=O)cc3)CC2)nc2ccsc12
- EC50 [13]: 1120 nM
- EC50 [14]: 173 nM
- EC50 [15]: 1250 nM
- EC50 [16]: 556 nM
- EC50 [17]: 585 nM
- EC50 [18]: 176 nM
- EC50 [1]: > 23500 nM
- EC50 [19]: 245 nM
